Data reported in patent publication US8389513B2, “2-amino-5,5-difluoro-5,6-dihydro-4H-[1,3]oxazin-4-yl)-phenyl]-amides” (Hoffmann-La Roche Inc., priority 2009, dated 2013).
pIC50: −log10 of the molar value.

Key:
[1] = target: T1, CYP2D6 (Homo sapiens, UniProt P10635); experiment: CYP inhibition assay, CYP2D6; format: in vitro ADME; conditions: human liver microsomes, dextromethorphan; read-out: CYP IC50 2D6
T1 construct: 0.2 mg/ml pooled human liver microsomes; from tissue; host or cells: pooled human liver microsomes
Method: Inhibition of cytochromes P450 (CYPs) 2C9, 2D6 and 3A4 was assessed using human liver microsomes and CYP-selective substrate metabolism reactions. 50 μl incubations were made up containing (finally) 0.2 mg/ml pooled human liver microsomes, 5 μM substrate (diclofenac for CYP2C9 [4′ hydroxylase], dextromethorphan for CYP2D6 [O-demethylase] or midazolam for CYP3A4 [1′ hydroxylase]), 0.25 μL DMSO containing test inhibitor and NADPH regenerating system. […] Incubations were prewarmed to 37° C. for 10 minutes before initiation by addition of NADPH regenerating system. Incubations were quenched after 5 minutes (20 minutes for dextromethorphan) by addition of 50 μl cold acetonitrile containing 20 ng/ml 4-OH-diclofenac-13C6, 20 ng/mL dextrorphan-D3 and 20 ng/mL 1-OH-midazolam-D4. Quenched incubates were stored at −20° C. for at least 1 hour before centrifugation (20,000×g, 20 minutes). Supernatants were removed and diluted 1:1 with water prior to analysis using a RapidFire sample injector system and API4000 mass spectrometer. Peak areas for substrate, metabolite and stable-labelled metabolite standard were determined using MS/MS. The peak area ratios between the metabolite generated by the enzymatic reaction and the internal standard were used in subsequent calculations. The percentage of (DMSO) control activity was calculated for each incubate and IC50 values estimated by non-linear regression. Sulfaphenazole, quinidine or ketoconazole were tested in each CYP2C9, CYP2D6 or CYP3A4 inhibition experiment, respectively, to ensure assay sensitivity and reproducibility.

[2] = in vivo effect; conditions: po; % of control @ 30 mg/kg p.o.
[3] = target: P-gP (Homo sapiens, UniProt P08183); experiment: P-gP human efflux ratio; format: in vitro ADME; set-up: key: A = not or weak substrate
[4] = target: T2, BACE1 (Homo sapiens, UniProt P56817); experiment: Cellular Aβ-lowering assay (Aβ40 ELISA); format: cell-based; conditions: HEK293 cells stably expressing human APP695; Aβ40 in culture supernatant; read-out: BACE1 cell act. Aβ40 IC50
T2 construct: Human HEK293 cells which are stably transfected with a vector expressing a cDNA of the human APP wt gene (APP695); endogenous in cells; host or cells: HEK293 stably transfected with human APP695 wt
Procedure, shortened: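 Aβ40 in supernatant measured by sandwich ELISA (TMB, 450 nm) and quantified against a pure Aβ peptide standard curve.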

[5] = target: T3, recombinant human cathepsin E (Homo sapiens, UniProt P14091); experiment: Cathepsin E fluorescent substrate kinetic assay; format: biochemical; conditions: pH 4.5
T3 construct: purchased R&D Systems
T3 sequence (P14091 54-396): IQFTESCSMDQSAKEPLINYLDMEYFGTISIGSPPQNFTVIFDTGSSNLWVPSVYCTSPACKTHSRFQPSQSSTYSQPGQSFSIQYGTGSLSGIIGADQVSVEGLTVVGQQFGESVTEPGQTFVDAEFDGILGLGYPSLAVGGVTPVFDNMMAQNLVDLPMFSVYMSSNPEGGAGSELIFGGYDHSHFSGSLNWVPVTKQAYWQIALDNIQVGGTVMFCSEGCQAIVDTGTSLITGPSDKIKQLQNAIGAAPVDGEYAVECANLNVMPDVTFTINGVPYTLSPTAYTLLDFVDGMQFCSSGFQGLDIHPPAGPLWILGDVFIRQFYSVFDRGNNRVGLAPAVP
Description: Cathepsin D and Cathepsin E Fluorescent Substrate Kinetic Assays
The MR121 fluorescence assays described below are based on the fact that MR121 forms a non-fluorescent ground state complex with tryptophan. In solution this formation occurs at millimolar concentrations of tryptophan. The mechanism can be used to design a generic biochemical assay for proteases. […] In absence of protease activity, the substrates remain intact and the MR121 fluorescence is reduced by the high local Trp-concentration. If the substrates are cleaved by the enzymes the MR121 fluorescence is recovered.
The fluorescent substrate cathepsin D and cathepsin E kinetic assays were performed at room temperature in 384-well microtiter plates (black with clear flat bottom, non binding surface plates from Corning) in a final volume of 51 μl. The test compounds were serially diluted in DMSO (15 concentrations, 1/3 dilution steps) and 1 μl of diluted compounds were mixed for 10 min with 40 μl of cathepsin D (from human liver, Calbiochem) diluted in assay buffer (100 mM sodium acetate, 0.05% BSA, pH 5.5; final concentration: 200 nM) or with 40 μl of recombinant human cathepsin E (R&D Systems) diluted in assay buffer (100 mM sodium acetate, 0.05% BSA, pH 4.5; final concentration: 0.01 nM). […] The enzymatic reaction was followed in a plate: vision reader (Perkin Elmer) (excitation wavelength: 630 nm; emission: 695 nm) for at least 30 minutes in a kinetic measurement detecting an increase of MR121 fluorescence during the reaction time. The slope in the linear range of the kinetic was calculated and the IC50 of the test compounds were determined using a four parameter equation for curve fitting.

[6] = target: T4, hERG channel (Homo sapiens, UniProt Q12809); experiment: PatchXpress hERG inhibition assay; format: cell-based; conditions: % inhibition @ 1 μM
T4 construct: expressed in transfected cells; host or cells: CHO
Description: PatchXpress hERG Inhibition Assay
For patch clamp electrophysiology, the external buffer contained (in mM): 150 NaCl, 10 Hepes, 4 KCl, 1.2 CaCl2, 1 MgCl2, pH 7.4 adjusted with […] and the internal recording solution contained (in mM): 140 KCl, 6 EGTA, 5 Hepes, MgCl2, 5 ATP-Na2, pH 7.2 adjusted with KOH. Once the cell was loaded in the recording chamber and formed a giga ohm seal with the planar glass electrodes (Sealchip™), a whole-cell configuration was achieved by rupturing the cell membrane. The membrane potential was then clamped at −80 mV and the hERG channel activated by a 1-second depolarizing pulse delivered at 0.1 Hz, the hERG current was measured during the 500 ms-repolarizing pulse to −40 mV. […] The inhibition of hERG current at each concentration was normalized to that recorded in the vehicle control, and fitted with Hill equation to calculate IC20 and/or IC50.

T2 sequence (P56817 46-501): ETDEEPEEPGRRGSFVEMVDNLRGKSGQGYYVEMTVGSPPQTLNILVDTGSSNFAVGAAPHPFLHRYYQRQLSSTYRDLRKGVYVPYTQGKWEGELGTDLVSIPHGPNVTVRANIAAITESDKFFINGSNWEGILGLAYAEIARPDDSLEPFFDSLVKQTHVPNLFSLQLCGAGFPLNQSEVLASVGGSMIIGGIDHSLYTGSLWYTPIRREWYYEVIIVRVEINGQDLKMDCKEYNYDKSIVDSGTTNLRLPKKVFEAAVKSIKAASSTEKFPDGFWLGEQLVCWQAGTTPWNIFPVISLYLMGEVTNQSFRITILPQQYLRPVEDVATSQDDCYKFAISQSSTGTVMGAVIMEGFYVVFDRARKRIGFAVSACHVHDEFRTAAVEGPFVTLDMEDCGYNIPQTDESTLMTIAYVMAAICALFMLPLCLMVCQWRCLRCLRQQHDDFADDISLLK
T4 sequence (Q12809 whole entry): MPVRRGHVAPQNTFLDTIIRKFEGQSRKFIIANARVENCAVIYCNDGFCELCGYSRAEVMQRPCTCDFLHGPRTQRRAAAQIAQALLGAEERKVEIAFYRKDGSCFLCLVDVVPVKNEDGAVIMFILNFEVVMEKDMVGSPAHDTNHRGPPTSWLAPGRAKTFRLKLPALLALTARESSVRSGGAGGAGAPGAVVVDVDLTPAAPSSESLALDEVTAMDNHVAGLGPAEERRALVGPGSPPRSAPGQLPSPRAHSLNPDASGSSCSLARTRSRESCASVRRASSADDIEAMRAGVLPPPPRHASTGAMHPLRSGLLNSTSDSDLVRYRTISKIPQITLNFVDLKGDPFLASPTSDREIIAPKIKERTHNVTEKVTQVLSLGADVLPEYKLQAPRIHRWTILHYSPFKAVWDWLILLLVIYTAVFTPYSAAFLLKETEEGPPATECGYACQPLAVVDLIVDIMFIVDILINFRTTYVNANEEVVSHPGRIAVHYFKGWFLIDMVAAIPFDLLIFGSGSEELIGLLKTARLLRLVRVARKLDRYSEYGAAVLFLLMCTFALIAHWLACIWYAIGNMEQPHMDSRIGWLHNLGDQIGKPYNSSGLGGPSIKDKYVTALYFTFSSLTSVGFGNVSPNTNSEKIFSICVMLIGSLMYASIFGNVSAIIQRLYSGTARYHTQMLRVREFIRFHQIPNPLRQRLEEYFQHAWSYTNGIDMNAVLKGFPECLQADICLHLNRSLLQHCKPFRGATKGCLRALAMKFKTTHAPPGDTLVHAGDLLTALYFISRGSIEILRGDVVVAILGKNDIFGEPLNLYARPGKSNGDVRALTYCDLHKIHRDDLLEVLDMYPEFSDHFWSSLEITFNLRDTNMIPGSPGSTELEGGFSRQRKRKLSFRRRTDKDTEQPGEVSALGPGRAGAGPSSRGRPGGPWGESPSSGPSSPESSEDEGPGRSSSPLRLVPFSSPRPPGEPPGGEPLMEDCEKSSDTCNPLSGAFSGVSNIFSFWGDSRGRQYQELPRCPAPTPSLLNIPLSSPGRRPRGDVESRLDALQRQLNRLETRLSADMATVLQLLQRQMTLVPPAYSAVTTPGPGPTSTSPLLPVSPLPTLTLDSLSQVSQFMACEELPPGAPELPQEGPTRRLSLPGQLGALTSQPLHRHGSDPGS
Sequence of P-gP (P08183 whole entry): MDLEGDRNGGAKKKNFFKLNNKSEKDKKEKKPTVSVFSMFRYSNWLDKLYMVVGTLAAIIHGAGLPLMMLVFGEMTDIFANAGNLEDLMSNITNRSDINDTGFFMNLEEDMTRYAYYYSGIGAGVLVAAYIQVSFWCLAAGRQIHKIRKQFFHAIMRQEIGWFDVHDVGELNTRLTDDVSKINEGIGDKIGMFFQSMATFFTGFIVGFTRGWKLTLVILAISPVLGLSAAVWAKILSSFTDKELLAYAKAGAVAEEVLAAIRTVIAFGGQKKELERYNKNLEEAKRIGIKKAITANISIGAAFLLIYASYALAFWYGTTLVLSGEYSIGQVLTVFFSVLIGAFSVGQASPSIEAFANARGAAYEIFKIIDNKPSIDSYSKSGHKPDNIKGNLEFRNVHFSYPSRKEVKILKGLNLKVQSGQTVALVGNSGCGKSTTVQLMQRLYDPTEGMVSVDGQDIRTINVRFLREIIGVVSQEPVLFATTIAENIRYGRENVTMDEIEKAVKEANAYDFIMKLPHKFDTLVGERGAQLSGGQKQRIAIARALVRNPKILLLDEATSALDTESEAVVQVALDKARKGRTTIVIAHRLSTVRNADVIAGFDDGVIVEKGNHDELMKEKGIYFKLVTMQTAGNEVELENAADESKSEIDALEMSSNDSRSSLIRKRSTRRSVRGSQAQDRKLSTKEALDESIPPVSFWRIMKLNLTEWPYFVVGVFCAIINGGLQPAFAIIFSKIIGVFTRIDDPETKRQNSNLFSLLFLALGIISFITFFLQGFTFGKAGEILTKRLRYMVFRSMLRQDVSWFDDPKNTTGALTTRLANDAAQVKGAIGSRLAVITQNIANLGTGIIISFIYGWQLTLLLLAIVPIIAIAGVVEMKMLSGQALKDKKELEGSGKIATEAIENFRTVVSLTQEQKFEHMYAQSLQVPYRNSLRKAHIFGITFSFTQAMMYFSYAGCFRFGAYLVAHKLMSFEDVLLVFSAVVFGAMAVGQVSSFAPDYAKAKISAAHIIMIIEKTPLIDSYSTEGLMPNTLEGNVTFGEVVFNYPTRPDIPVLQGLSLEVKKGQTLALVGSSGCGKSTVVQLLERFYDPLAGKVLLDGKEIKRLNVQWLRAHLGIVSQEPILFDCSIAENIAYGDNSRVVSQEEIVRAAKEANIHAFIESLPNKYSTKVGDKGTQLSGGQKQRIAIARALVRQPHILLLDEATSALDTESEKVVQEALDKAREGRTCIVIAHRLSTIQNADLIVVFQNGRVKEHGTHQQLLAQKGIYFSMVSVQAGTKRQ
T1 sequence (P10635 whole entry): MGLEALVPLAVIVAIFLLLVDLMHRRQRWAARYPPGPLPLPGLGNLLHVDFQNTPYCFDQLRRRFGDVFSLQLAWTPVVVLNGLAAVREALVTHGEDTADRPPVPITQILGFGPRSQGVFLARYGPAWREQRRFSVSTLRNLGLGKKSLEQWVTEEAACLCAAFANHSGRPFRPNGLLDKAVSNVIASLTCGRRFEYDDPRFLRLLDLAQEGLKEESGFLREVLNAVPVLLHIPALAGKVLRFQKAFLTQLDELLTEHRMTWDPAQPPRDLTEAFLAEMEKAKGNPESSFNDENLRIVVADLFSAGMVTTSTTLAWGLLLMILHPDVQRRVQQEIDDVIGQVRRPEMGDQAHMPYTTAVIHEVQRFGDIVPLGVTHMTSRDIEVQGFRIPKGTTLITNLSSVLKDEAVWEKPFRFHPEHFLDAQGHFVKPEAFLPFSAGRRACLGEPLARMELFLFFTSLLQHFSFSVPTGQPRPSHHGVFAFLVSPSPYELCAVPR

C[C@]1(c2cc(NC(=O)c3ncc(C(F)(F)F)cc3Cl)ccc2F)N=C(N)OCC1(F)F [Example 5, 3-Chloro-5-trifluoromethyl-pyridine-2-carboxylic acid [3-((R)-2-amino-5,5-difluoro-4-methyl-5,6-dihydro-4H-[1,3]oxazin-4-yl)-4-fluoro-phenyl]-amide]
pIC50 [1]: 5.00 to 6.00
response vs control in vivo at 30 mg/kg [2]: < 50%
P-gP human, efflux ratio: substrate category [3]: A
pIC50 [4]: 7.37
pIC50 [5]: < 3.70
hERG [6]: A (A = less than 26% inhibition @ 1 μM)

C[C@]1(c2cc(NC(=O)c3ncc(C#N)cc3Cl)ccc2F)N=C(N)OCC1(F)F [Example 39, 3-Chloro-5-cyano-pyridine-2-carboxylic acid [3-((R)-2-amino-5,5-difluoro-4-methyl-5,6-dihydro-4H-[1,3]oxazin-4-yl)-4-fluoro-phenyl]-amide]
pIC50 [1]: < 5.00
response vs control in vivo at 30 mg/kg [2]: < 50%
pIC50 [5]: < 3.70

CC1(C)OC(N)=N[C@](C)(c2cc(NC(=O)c3ncc(C(F)(F)F)cc3Cl)ccc2F)C1(F)F [Example 20, 3-Chloro-5-trifluoromethyl-pyridine-2-carboxylic acid [3-((R)-2-amino-5,5-difluoro-4,6,6-trimethyl-5,6-dihydro-4H-[1,3]oxazin-4-yl)-4-fluoro-phenyl]-amide]
pIC50 [1]: 5.00 to 6.00
response vs control in vivo at 30 mg/kg [2]: < 50%
P-gP human, efflux ratio: substrate category [3]: A
pIC50 [4]: 7.30
pIC50 [5]: < 3.70
hERG [6]: A (A = less than 26% inhibition @ 1 μM)

C[C@]1(c2cc(NC(=O)c3ccc(Cl)cn3)ccc2F)N=C(N)OCC1(F)F [Example 1, 5-Chloro-pyridine-2-carboxylic acid [3-((R)-2-amino-5,5-difluoro-4-methyl-5,6-dihydro-4H-[1,3]oxazin-4-yl)-4-fluoro-phenyl]-amide]
pIC50 [1]: 5.00 to 6.00
response vs control in vivo at 30 mg/kg [2]: < 50%
pIC50 [5]: 3.96
hERG [6]: A (A = less than 26% inhibition @ 1 μM)

CC1(C)OC(N)=N[C@](C)(c2cc(NC(=O)c3ccc(C#N)cn3)ccc2F)C1(F)F [Example 21, 5-Cyano-pyridine-2-carboxylic acid [3-((R)-2-amino-5,5-difluoro-4,6,6-trimethyl-5,6-dihydro-4H-[1,3]oxazin-4-yl)-4-fluoro-phenyl]-amide]
pIC50 [1]: < 5.00
response vs control in vivo at 30 mg/kg [2]: < 50%
P-gP human, efflux ratio: substrate category [3]: A
pIC50 [4]: 8.15
pIC50 [5]: < 3.70

C[C@]1(c2cc(NC(=O)c3ncc(Cl)cc3Cl)ccc2F)N=C(N)OCC1(F)F [Example 8, 3,5-Dichloro-pyridine-2-carboxylic acid [3-((R)-2-amino-5,5-difluoro-4-methyl-5,6-dihydro-4H-[1,3]oxazin-4-yl)-4-fluoro-phenyl]-amide]
pIC50 [1]: < 5.00
response vs control in vivo at 30 mg/kg [2]: < 50%
pIC50 [4]: 7.82
hERG [6]: A (A = less than 26% inhibition @ 1 μM)

CC1(C)OC(N)=N[C@](C)(c2cc(NC(=O)c3ncc(C#N)cc3Cl)ccc2F)C1(F)F [Example 22, 3-Chloro-5-cyano-pyridine-2-carboxylic acid [3-((R)-2-amino-5,5-difluoro-4,6,6-trimethyl-5,6-dihydro-4H-[1,3]oxazin-4-yl)-4-fluoro-phenyl]-amide]
pIC50 [1]: 5.00 to 6.00
response vs control in vivo at 30 mg/kg [2]: < 50%
pIC50 [4]: 8.15
pIC50 [5]: < 3.70
